In ChEMBL document CHEMBL5365469, “Design, synthesis and antitumor effects of novel benzimidazole derivatives as PI3K inhibitors” (Bioorg Med Chem Lett, 2023) one finds IC50, Activity and inhibition data, which are given here for one compound.

One data set has as its system PC-3. The experiment in a line: Antiproliferative activity against human PC-3 cells assessed as inhibition of cell growth by MTT assay. The format is functional, cell-based. In general terms: Tetrazolium dyes change colour on reduction, which living cells bring about.
Data set [1] has as its system A549. As to the kind of experiment: Induction of cell cycle arrest in human A549 cells assessed as accumulation of cells at G0/G1 phase at 1.5 uM by FACS analysis ( Rvb = 49.93%). The format is functional.
Data set [2] relates to A549. As to the kind of experiment: Induction of cell cycle arrest in human A549 cells assessed as accumulation of cells at G2/M phase at 1.5 uM by FACS analysis ( Rvb = 9.35%). In kind it is functional. Background: In flow cytometry, cells or beads pass a laser one at a time.
Data set [3] relates to A549. The experiment in a line: Induction of apoptosis in human A549 cells assessed as increase in apoptotic cells at 6 uM incubated for 48 hrs by Annexin V-FITC/PI staining analysis relative to control. In kind it is functional.
Data set [4] has as its system A549. As to the kind of experiment: Inhibition of PI3K signalling pathway in human […] cells assessed as decrease in phosphorylated PI3K level by Western blot assay. In kind it is cell-based. Conditions: dose 1.5-6 µM. (In western blotting, separated proteins are transferred to a membrane and probed.)
A further data set relates to MCF7. As to the kind of experiment: Antiproliferative activity against human MCF7 cells assessed as inhibition of cell growth by MTT assay. The format is functional, cell-based.
The next data set concerns HCT-116. As to the kind of experiment: Antiproliferative activity against human HCT-116 cells assessed as inhibition of cell growth by MTT assay. The format is functional, cell-based.
Data set [5] relates to A549. The experiment in a line: Antiproliferative activity against human A549 cells assessed as inhibition of cell growth by MTT assay. The format is functional, cell-based.
In data set [6] the test system is A549. The experiment in a line: Inhibition of PI3K signalling pathway in human […] cells assessed as decrease in phosphorylated AKT level by Western blot assay. The format is cell-based. Conditions: dose 1.5-6 µM.
In data set [7] the test system is A549. As to the kind of experiment: Induction of cell cycle arrest in human A549 cells assessed as accumulation of cells at S phase at 3 uM by FACS analysis ( Rvb = 40.71%). The format is functional.
The next data set relates to SiHa. The experiment in a line: Antiproliferative activity against human SiHa cells assessed as inhibition of cell growth by MTT assay. In kind it is functional, cell-based.
Data set [8] relates to A549. As to the kind of experiment: Induction of cell cycle arrest in human A549 cells assessed as accumulation of cells at G2/M phase at 3 uM by FACS analysis ( Rvb = 9.35%). In kind it is functional.
The test system of data set [9] is A549. As to the kind of experiment: Induction of cell cycle arrest in human A549 cells assessed as accumulation of cells at S phase at 1.5 uM by FACS analysis ( Rvb = 40.71%). In kind it is functional.
The subject of data set [10] is A549. The experiment in a line: Induction of apoptosis in human A549 cells assessed as increase in apoptotic cells at 1.5 uM incubated for 48 hrs by Annexin V-FITC/PI staining analysis relative to control. The format is functional.
Data set [11] in a line: Cytotoxicity against human L02 cells assessed as inhibition of cell growth by MTT assay. The format is toxicity, cell-based.
In data set [12] the test system is A549. As to the kind of experiment: Induction of cell cycle arrest in human A549 cells assessed as accumulation of cells at G2/M phase at 6 uM by FACS analysis ( Rvb = 9.35%). In kind it is functional.
The subject of data set [13] is A549. As to the kind of experiment: Induction of cell cycle arrest in human A549 cells assessed as accumulation of cells at G0/G1 phase at 3 uM by FACS analysis ( Rvb = 49.93%). In kind it is functional.
Data set [14] relates to A549. As to the kind of experiment: Induction of cell cycle arrest in human A549 cells assessed as accumulation of cells at S phase at 6 uM by FACS analysis ( Rvb = 40.71%). In kind it is functional.
Data set [15] concerns A549. As to the kind of experiment: Induction of cell cycle arrest in human A549 cells assessed as accumulation of cells at G0/G1 phase at 6 uM by FACS analysis ( Rvb = 49.93%). In kind it is functional.
In data set [16] the test system is A549. The experiment in a line: Induction of apoptosis in human A549 cells assessed as increase in apoptotic cells at 3 uM incubated for 48 hrs by Annexin V-FITC/PI staining analysis relative to control. The format is functional.
A further data set has as its system HepG2. As to the kind of experiment: Antiproliferative activity against human HepG2 cells assessed as inhibition of cell growth by MTT assay. The format is functional, cell-based.

SMILES strings stand for the structures.

With `COc1cc2nc(-c3cc(OC)c(OC)cc3OC)[nH]c2cc1C#Cc1ccccc1F`, the IC50 in the data set with PC-3 stood at 25.5 µM; in the data set on MCF7, 2.01 µM; with HCT-116, 1.68 µM; with A549 [5] it was 1.55 µM; in the data set with SiHa, 9.36 µM; in [11] it was 41.5 µM. Besides, in the data set on HepG2, the 50% inhibitory concentration (IC50) was 88.7 µM. The Activity with A549 [1] was 54.14%; in the data set with A549 [2] it was 8.15%; with A549 [3] it was 63.1%; with A549 [7] it was 37.22%; in the data set on A549 [8], 7.83%; with A549 [9] it was 37.71%. The Activity in the data set on A549 [10] came out at 28.97%; with A549 [12], 6.64%; in the data set with A549 [13] it was 54.95%; in the data set with A549 [14] it was 32.41%; in the data set with A549 [15], 60.61%; in the data set on A549 [16] it was 61.73%. Further, the inhibition result with A549 [4] and in the data set with A549 [6] was “Dose-Dependent Effect” each time.

The term IC50 denotes the concentration that gives 50% inhibition.
